Values quoted from earlier work, collected in US7422793B2, “Non-toxic corrosion-protection rinses and seals based on rare earth elements” (University of Dayton, priority 2002, dated 2008).
Like-named read-outs stand apart in the source and are kept apart here.

Settings: cited from earlier work
[1] = fluoride preparative agents, at or near 25° C. and at or near pH 7

| Compound | Solubility in Water (pH 7) | also measured |
| --- | --- | --- |
| F[Si-2](F)(F)(F)(F)F.[Na+].[Na+] [Sodium hexafluorosilicate] | – | Solubility in Water [1]: 0.035 mol/L |
| [Cs+].[Cs+].[F][Ti-2]([F])([F])([F])([F])[F] [Cesium hexafluorotitanate] | 0.055 mol/L | – |
| Magnesium tungstate hydrate | 0.72 mol/L | – |
| [Li+].[O-][Cl+2]([O-])[O-] [Lithium chlorate] | 55 mol/L | – |
| Potassium tungstate | 142 mol/L | – |
| [F][Nb-2]([F])([F])([F])([F])([F])[F].[Li+].[Li+] [Lithium heptafluoroniobate] | 0.5 mol/L | – |
| [Cs+].[Cs+].[F][Nb-2]([F])([F])([F])([F])([F])[F] [Cesium heptafluoroniobate] | 0.3 mol/L | – |
| Rubidium stannate | 5 × 10^0 mole/L | – |
| O=[Te](=O)([O-])[O-].[Li+].[Li+] [Lithium tellurate] | 1 × 10^0 mole/L | – |
| [K+].[K+].[O]=[Mo](=[O])([O-])[O-] [Potassium molybdate] | 775 mol/L | – |
| [F][Zr-2]([F])([F])([F])([F])[F].[K+].[K+] [Potassium hexafluorozirconate] | 0.0812 mol/L | – |
| [F][Nb-2]([F])([F])([F])([F])([F])[F].[K+].[K+] [Potassium heptafluoroniobate] | 0.26 mol/L | – |
| Rubidium hexafluorostannate | 0.062 mol/L | – |
| [Li+].[Li+].[O]=[Mo](=[O])([O-])[O-] [Lithium molybdate] | 10 mol/L | – |
| Manganese (II) Fluorosilicate | 4.59 × 10^0 mole/L | – |
| O=[As](=O)O[As](=O)=O [Arsenic pentoxide] | 6.5 × 10^0 mole/L | – |
| O=N[O-].O=N[O-].[Mg+2] [Magnesium nitrite] | 1 × 10^0 mole/L | – |
| [F][Ti-2]([F])([F])([F])([F])[F].[Li+].[Li+] [Lithium hexafluorotitanate] | 0.05 mol/L | – |
| Rubidium hexafluorohafnate | 0.19 mol/L | – |
| CCC[N+](CCC)(CCC)CCC.[O-][Cl+3]([O-])([O-])[O-] [Pr4N^+ perchlorate] | 0.1 mol/L | – |
| [Cs+].[Cs+].[O]=[Sn]([O-])[O-] [Cesium stannate] | 1 × 10^0 mole/L | – |
| [Li+].[Li+].[O]=[Sn]([O-])[O-] [Lithium stannate] | 5 × 10^0 mole/L | – |

| Compound | Solubility in Water (pH 7) | also measured |
| --- | --- | --- |
| F[Si-2](F)(F)(F)(F)F.[Ca+2] [Calcium hexafluorosilicate] | 0.5 mol/L | – |
| [Cs+].[Cs+].[F][Ge-2]([F])([F])([F])([F])[F] [Cesium hexafluorogermanate] | 0.047 mol/L | – |
| Iron (III) hexafluorosilicate | “soluble” | – |
| Potassium vanadate | 1 × 10^0 mole/L | – |
| Potassium fluoroaluminate | 0.0061 mol/L | – |
| [O]=[W](=[O])([OH])[OH] [Tungstic acid] | 0.8 mol/L | – |
| OO [Hydrogen peroxide] | – | Solubility in Water (oxidizer sources, at or near 25° C. and at or near pH 7): 60 wt. % |
| O=[Te](=O)([O-])[O-].[K+].[K+] [Potassium tellurate] | 0.01 mol/L | – |
| [Cs+].[O-][Cl+3]([O-])([O-])[O-] [Cesium perchlorate] | 0.086 mol/L | – |
| Rubidium tellurate | 0.01 mol/L | – |
| [Cs+].[Cs+].[F][Zr-2]([F])([F])([F])([F])[F] [Cesium hexafluorozirconate] | 0.112 mol/L | – |
| Magnesium vanadate | 1 × 10^0 mole/L | – |
| Potassium arsenate | 0.74 mol/L | – |
| Silver (I) fluorogallate | 1 × 10^0 mole/L | – |
| [F][Al-3]([F])([F])([F])([F])[F].[Na+].[Na+].[Na+] [Sodium hexafluoroaluminate] | 0.0029 mol/L | – |
| Rubidium bromate | 0.14 mol/L | – |
| Sodium perborate | 0.17 mol/L | – |
| F[B-](F)(F)F.[Li+] [Lithium tetrafluoroborate] | 5 × 10^0 mole/L | – |
| Zinc nitrite | 1 × 10^0 mole/L | – |
| [F-].[F-].[F-].[F-].[F-].[F-].[K+].[K+].[Sn+4] [Potassium hexafluorostannate] | 0.128 mol/L | – |
| [F][Sb-]([F])([F])([F])([F])[F].[Li+] [Lithium hexafluoroantimonate] | 1 × 10^0 mole/L | – |
| [O]=[Mo](=[O])([OH])[OH] [Molybdic acid] | 0.0074 mol/L | – |

| Compound | Solubility in Water (pH 7) | also measured |
| --- | --- | --- |
| [F][Ta-2]([F])([F])([F])([F])([F])[F].[K+].[K+] [Potassium heptafluorotantalate] | 0.3 mol/L | – |
| Potassium niobate | 0.05 mol/L | – |
| [O-][I+2]([O-])O[I+2]([O-])[O-] [Iodine pentoxide] | 5.6 × 10^0 mole/L | – |
| O=[Se](=O)(O)O [Sodium selenate] | 1.2 × 10^0 mole/L | – |
| [F][Sb-]([F])([F])([F])([F])[F].[Na+] [Sodium hexafluoroantimonate] | 4.97 × 10^0 mole/L | – |
| [F][Hf-2]([F])([F])([F])([F])[F].[Na+].[Na+] [Sodium hexafluorohafnate] | 0.07 mol/L | – |
| Copper (II) hexafluorosilicate | 7.4 × 10^0 mole/L | – |
| [Cs+].[O-][Cl+2]([O-])[O-] [Cesium chlorate] | 0.29 mol/L | – |
| [Cs+].[O-][I+3]([O-])([O-])[O-] [Cesium periodate] | 0.066 mol/L | – |
| [F-].[F-].[F][Zr]([F])([F])[F].[Li+].[Li+] [Lithium hexafluorozirconate] | 0.08 mol/L | – |
| O[Te](O)(O)(O)(O)O [Telluric acid] | 0.5 mol/L | – |
| [F][Sb]([F])([F])([F])[F] [Antimony (V) fluoride] | 1 × 10^0 mole/L | – |
| [F][Ge-2]([F])([F])([F])([F])[F].[Li+].[Li+] [Lithium hexafluorogermanate] | 1 × 10^0 mole/L | – |
| Strontium bromate | 0.91 mol/L | – |
| [Mg+2].[O-][Cl+3]([O-])([O-])[O-].[O-][Cl+3]([O-])([O-])[O-] [Magnesium perchlorate] | 4.4 × 10^0 mole/L | – |
| O=N[O-].[Li+] [Lithium nitrite] | 28 mol/L | – |
| Tin (IV) fluoride | 1 × 10^0 mole/L | – |
| [O-][Cl+3]([O-])([O-])[O-].[O-][Cl+3]([O-])([O-])[O-].[Zn+2] [Zinc perchlorate] | 1 × 10^0 mole/L | – |
| O=N[O-].[K+] [Potassium nitrite] | 35 mol/L | – |
| Vanadium pentoxide | 0.044 mol/L | – |
| [F][Zr-2]([F])([F])([F])([F])[F].[Na+].[Na+] [Sodium hexafluorozirconate] | 0.06 mol/L | – |
| Rubidium hexafluorozirconate | 0.0848 mol/L | – |

| Compound | Solubility in Water (pH 7) | also measured |
| --- | --- | --- |
| CC[N+](CC)(CC)CC.[O-][Cl+3]([O-])([O-])[O-] [Et4N^+ perchlorate] | 0.5 mol/L | – |
| Strontium nitrite | 3.8 × 10^0 mole/L | – |
| Lithium germanate | 0.063 mol/L | – |
| F[Si-2](F)(F)(F)(F)F.[NH4+].[NH4+] [Ammonium hexafluorosilicate] | 1.04 × 10^0 mole/L | – |
| [Cs+].[Cs+].[F][Ta-2]([F])([F])([F])([F])([F])[F] [Cesium heptafluorotantalate] | 0.3 mol/L | – |
| [Cs+].[O]=[V](=[O])[O-] [Cesium vanadate] | 0.5 mol/L | – |
| Rubidium tungstate | 50 mol/L | – |
| [Ca+2].[O-][Cl+2]([O-])[O-].[O-][Cl+2]([O-])[O-] [Calcium chlorate] | 7.4 × 10^0 mole/L | – |
| [Na+].[O-2].[O-2].[O-2].[Ta+5] [Sodium tantalate] | 0.0055 mol/L | – |
| [O-][Cl+2]([O-])[O-].[O-][Cl+2]([O-])[O-].[Sr+2] [Strontium chlorate] | 6.9 × 10^0 mole/L | – |
| Ammonium selenate | 6.0 × 10^0 mole/L | – |
| F[Si-2](F)(F)(F)(F)F.[Li+].[Li+] [Lithium hexafluorosilicate] | – | Solubility in Water [1]: 3.8 × 10^0 mole/L |
| O=[Te](=O)([O-])[O-].[Cs+].[Cs+] [Cesium tellurate] | 0.01 mol/L | – |
| [Li+].[Li+].[O-][O-] [Lithium peroxide] | 1 × 10^0 mole/L | – |
| [F][Sb-]([F])([F])([F])([F])[F].[K+] [Potassium fluoroantimonate] | 3.7 × 10^0 mole/L | – |
| [F][Ge-2]([F])([F])([F])([F])[F].[Na+].[Na+] [Sodium hexafluorogermanate] | 0.01 mol/L | – |
| Rubidium heptafluoroniobate | 0.1 mol/L | – |
| [O-][Cl+2]([O-])[O-].[O-][Cl+2]([O-])[O-].[Zn+2] [Zinc chlorate] | 8.6 × 10^0 mole/L | – |
| [Mg+2].[O-][Cl+2]([O-])[O-].[O-][Cl+2]([O-])[O-] [Magnesium chlorate] | 4.3 × 10^0 mole/L | – |
| [F-].[F-].[F-].[F-].[F-].[F-].[Na+].[Na+].[Sn+4] [Sodium hexafluorostannate] | 0.01 mol/L | – |
| [Li+].[O-][Cl+3]([O-])([O-])[O-] [Lithium perchlorate] | 5.6 × 10^0 mole/L | – |
| Rubidium heptafluorotantalate | 0.1 mol/L | – |
